Results published in PubChem BioAssay (NCI).
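Five concentrations, 48 hours, 96-well plates. At the GI50, growth is halved. TGI: total growth inhibition.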

Legend:
Assay in all cases: NCI anticancer screen, dose series, 48 h
M14 melanoma = system: M14 melanoma
NCI-H23 lung = system: NCI-H23 lung
HCT-116 colon = system: HCT-116 colon
MDA-MB-435 = system: MDA-MB-435
MOLT-4 leukemia = system: MOLT-4 leukemia
ACHN renal = system: ACHN renal
PC-3 prostate = system: PC-3 prostate
OVCAR-8 ovarian = system: OVCAR-8 ovarian

CN(C)CCNC(=O)c1ccc(NCCCN(C)CCCNc2ccc(C(=O)NCCN(C)C)c3[nH]c4ccccc4c(=O)c23)c2c(=O)c3ccccc3[nH]c12
TGI (M14 melanoma): 1.46 µM
TGI (NCI-H23 lung): 0.315 µM
TGI (HCT-116 colon): 0.205 µM
TGI (MDA-MB-435): 0.194 µM
TGI (MOLT-4 leukemia): 1.09 µM
TGI (ACHN renal): 1.71 µM
TGI (PC-3 prostate): 0.331 µM
TGI (OVCAR-8 ovarian): 1.14 µM

NC(=O)N/N=C(/CC1C(=O)Oc2ccccc21)c1ccccc1O (configuration not stated)
TGI (M14 melanoma): > 100 µM
TGI (NCI-H23 lung): > 100 µM
TGI (HCT-116 colon): > 100 µM
TGI (MDA-MB-435): > 100 µM
TGI (MOLT-4 leukemia): 50.9 µM
TGI (ACHN renal): > 100 µM
TGI (PC-3 prostate): > 100 µM
TGI (OVCAR-8 ovarian): > 100 µM

CSc1ccc(-c2cc(-c3nc4ccccc4[nH]3)no2)cc1
TGI (M14 melanoma): 56.2 µM
TGI (NCI-H23 lung): 66 µM
TGI (HCT-116 colon): > 100 µM
TGI (MDA-MB-435): 44.7 µM
TGI (MOLT-4 leukemia): 37.2 µM
TGI (ACHN renal): > 100 µM
TGI (PC-3 prostate): > 100 µM
TGI (OVCAR-8 ovarian): > 100 µM

O=C1c2ccccc2C(=O)c2cc(N=Nc3c(O)ccc4ccccc34)ccc21
TGI (M14 melanoma): > 100 µM
TGI (NCI-H23 lung): > 100 µM
TGI (HCT-116 colon): > 100 µM
TGI (MDA-MB-435): > 100 µM
TGI (MOLT-4 leukemia): > 100 µM
TGI (ACHN renal): > 100 µM
TGI (PC-3 prostate): > 100 µM
TGI (OVCAR-8 ovarian): > 100 µM

COc1cc2c(cc1OC)C(=O)N(c1ccc(O)cc1)C2=O
TGI (M14 melanoma): > 100 µM
TGI (NCI-H23 lung): > 100 µM
TGI (HCT-116 colon): > 100 µM
TGI (MDA-MB-435): > 100 µM
TGI (MOLT-4 leukemia): > 100 µM
TGI (ACHN renal): > 100 µM
TGI (PC-3 prostate): > 100 µM
TGI (OVCAR-8 ovarian): > 100 µM

O=C1/C(=C\c2cccc(Oc3ccccc3)c2)SC(c2ccccc2)N1c1ccccc1 (configuration not stated)
TGI (M14 melanoma): > 100 µM
TGI (NCI-H23 lung): > 100 µM
TGI (HCT-116 colon): > 100 µM
TGI (MDA-MB-435): > 100 µM
TGI (MOLT-4 leukemia): > 100 µM
TGI (ACHN renal): > 100 µM
TGI (OVCAR-8 ovarian): > 100 µM

CCCC(CCC(N)=O)(CCC(N)=O)[N+](=O)[O-]
TGI (M14 melanoma): > 100 µM
TGI (NCI-H23 lung): > 100 µM
TGI (HCT-116 colon): > 100 µM
TGI (MDA-MB-435): > 100 µM
TGI (MOLT-4 leukemia): > 100 µM
TGI (ACHN renal): > 100 µM
TGI (PC-3 prostate): > 100 µM
TGI (OVCAR-8 ovarian): > 100 µM

c1ccc2c(c1)c1c(n2CCOCCN2CCCC2)CCCC1
TGI (M14 melanoma): 29.5 µM
TGI (NCI-H23 lung): 65.2 µM
TGI (HCT-116 colon): 32.5 µM
TGI (MDA-MB-435): 33.8 µM
TGI (MOLT-4 leukemia): 34.3 µM
TGI (ACHN renal): 42.1 µM
TGI (PC-3 prostate): 66 µM
TGI (OVCAR-8 ovarian): 57.6 µM

Cc1cc2/c(=C\c3ccc(N(C)C)cc3)c3ccccc3n2[n+]1C
TGI (M14 melanoma): 3.73 µM
TGI (NCI-H23 lung): 3.23 µM
TGI (HCT-116 colon): 2.55 µM
TGI (MDA-MB-435): 1.84 µM
TGI (MOLT-4 leukemia): 1.32 µM
TGI (ACHN renal): 10 µM
TGI (PC-3 prostate): 2.38 µM
TGI (OVCAR-8 ovarian): 1.78 µM

C=CCC1CC(n2cc(C)c(=O)[nH]c2=O)OC1CO[Si](C)(C)C(C)(C)C (configuration not stated)
TGI (M14 melanoma): 33.5 µM
TGI (NCI-H23 lung): 27.1 µM
TGI (HCT-116 colon): 24.6 µM
TGI (MDA-MB-435): 28.2 µM
TGI (ACHN renal): 29.8 µM
TGI (PC-3 prostate): 25.1 µM
TGI (OVCAR-8 ovarian): 28.5 µM

O=C(O)CCC(=O)c1ccc2c(c1)C(C(=O)O)CC2 (configuration not stated)
TGI (M14 melanoma): > 100 µM
TGI (NCI-H23 lung): > 100 µM
TGI (HCT-116 colon): 2.25 µM
TGI (MDA-MB-435): > 100 µM
TGI (MOLT-4 leukemia): > 100 µM
TGI (ACHN renal): > 100 µM
TGI (PC-3 prostate): > 100 µM
TGI (OVCAR-8 ovarian): > 100 µM

CN1CN(c2ccccc2)C2(CCN(CC(C)(c3ccc(F)cc3)C3OCCCO3)CC2)C1=O (configuration not stated)
TGI (M14 melanoma): 34.5 µM
TGI (NCI-H23 lung): 32.9 µM
TGI (HCT-116 colon): 28.7 µM
TGI (MDA-MB-435): 24.5 µM
TGI (MOLT-4 leukemia): 33.2 µM
TGI (ACHN renal): 49.2 µM
TGI (PC-3 prostate): 34.7 µM
TGI (OVCAR-8 ovarian): 38.5 µM

O=C1CC(c2ccccc2)C2(C(=O)NC(=S)NC2=O)C(c2ccccc2)C1 (configuration not stated)
TGI (M14 melanoma): > 75 µM
TGI (NCI-H23 lung): > 75 µM
TGI (HCT-116 colon): > 75 µM
TGI (MDA-MB-435): > 75 µM
TGI (MOLT-4 leukemia): > 75 µM
TGI (ACHN renal): > 75 µM
TGI (PC-3 prostate): > 75 µM
TGI (OVCAR-8 ovarian): > 75 µM

O=C(O)Cc1ccc(Nc2nc3cc(C(F)(F)F)ccc3nc2C(=O)O)cc1
TGI (M14 melanoma): > 100 µM
TGI (NCI-H23 lung): > 100 µM
TGI (HCT-116 colon): > 100 µM
TGI (MDA-MB-435): > 100 µM
TGI (MOLT-4 leukemia): > 100 µM
TGI (ACHN renal): > 100 µM
TGI (PC-3 prostate): > 100 µM
TGI (OVCAR-8 ovarian): > 100 µM

CCOC(=O)c1[nH]c(Br)c(-c2ccc(OC)c(OC)c2)c1Br
TGI (M14 melanoma): 16 µM
GI50 (NCI-H23 lung): 7.83 µM
TGI (HCT-116 colon): 13.7 µM
GI50 (MDA-MB-435): 0.00279 µM
TGI (MDA-MB-435): 0.00973 µM
TGI (MOLT-4 leukemia): 8.59 µM
GI50 (ACHN renal): 0.239 µM
TGI (ACHN renal): 22.6 µM
GI50 (PC-3 prostate): 0.0112 µM
TGI (PC-3 prostate): 23.7 µM
GI50 (OVCAR-8 ovarian): 0.0511 µM
TGI (OVCAR-8 ovarian): 36.8 µM

CC(=O)OC12C3C4C1C1C2C3C41OC(C)=O (configuration not stated)
TGI (M14 melanoma): > 100 µM
TGI (NCI-H23 lung): > 100 µM
TGI (HCT-116 colon): > 100 µM
TGI (MDA-MB-435): > 100 µM
TGI (MOLT-4 leukemia): > 100 µM
TGI (ACHN renal): > 100 µM
TGI (PC-3 prostate): > 100 µM
TGI (OVCAR-8 ovarian): > 100 µM

CCOC(=O)c1[nH]c(-c2[nH]c(-c3[nH]c(-c4[nH]c(C(=O)OCC)c(C)c4C(=O)OCC)c(C(=O)OCC)c3C)c(C)c2C(=O)OCC)c(C(=O)OCC)c1C
TGI (M14 melanoma): > 100 µM
TGI (NCI-H23 lung): > 100 µM
TGI (HCT-116 colon): > 100 µM
TGI (MDA-MB-435): > 100 µM
TGI (MOLT-4 leukemia): > 100 µM
TGI (ACHN renal): > 100 µM
TGI (PC-3 prostate): > 100 µM
TGI (OVCAR-8 ovarian): > 100 µM

C#C/C=C\CCCC/C=C\C#CC#CCCCC#CC#C[C@H](COS(=O)(=O)O)OS(=O)(=O)O
TGI (M14 melanoma): > 100 µM
TGI (NCI-H23 lung): > 100 µM
TGI (HCT-116 colon): > 100 µM
TGI (MDA-MB-435): > 100 µM
TGI (MOLT-4 leukemia): > 100 µM
TGI (ACHN renal): > 100 µM
TGI (PC-3 prostate): > 100 µM
TGI (OVCAR-8 ovarian): > 100 µM

Cc1c2c3ccccc3nc-2n(C)c2ccccc12
TGI (M14 melanoma): 20.5 µM
TGI (NCI-H23 lung): 13.9 µM
TGI (HCT-116 colon): > 100 µM
TGI (MDA-MB-435): 12.4 µM
TGI (MOLT-4 leukemia): 2.01 µM
TGI (ACHN renal): 6.23 µM
TGI (PC-3 prostate): 7.5 µM
TGI (OVCAR-8 ovarian): 15.1 µM

O=[N+]([O-])c1ccc2c(c1)N([O-])C1(CCCCC1)[N+]2=O
TGI (M14 melanoma): 30.5 µM
TGI (NCI-H23 lung): 66.3 µM
TGI (HCT-116 colon): 33.3 µM
TGI (MDA-MB-435): 30.9 µM
TGI (MOLT-4 leukemia): 51.9 µM
TGI (ACHN renal): 33.8 µM
TGI (PC-3 prostate): 31.2 µM
TGI (OVCAR-8 ovarian): 42.6 µM

c1cc2c(cc1NC1=NCCO1)OCO2
TGI (M14 melanoma): > 100 µM
TGI (NCI-H23 lung): > 100 µM
TGI (HCT-116 colon): > 100 µM
TGI (MDA-MB-435): > 100 µM
TGI (MOLT-4 leukemia): > 100 µM
TGI (ACHN renal): > 100 µM
TGI (PC-3 prostate): > 100 µM
TGI (OVCAR-8 ovarian): > 100 µM

Cc1nc(CC#N)n[nH]1
TGI (M14 melanoma): > 100 µM
TGI (NCI-H23 lung): > 100 µM
TGI (HCT-116 colon): > 100 µM
TGI (MDA-MB-435): > 100 µM
TGI (MOLT-4 leukemia): > 100 µM
TGI (ACHN renal): > 100 µM
TGI (PC-3 prostate): > 100 µM
TGI (OVCAR-8 ovarian): > 100 µM

Cc1ccccc1OC(C)C(=O)NN1C(=O)CSC1c1ccc(Cl)cc1 (configuration not stated)
TGI (M14 melanoma): > 100 µM
TGI (NCI-H23 lung): > 100 µM
TGI (HCT-116 colon): > 95.5 µM
TGI (MDA-MB-435): > 100 µM
TGI (MOLT-4 leukemia): > 59.7 µM
TGI (ACHN renal): > 68.9 µM
TGI (PC-3 prostate): > 100 µM
TGI (OVCAR-8 ovarian): > 100 µM

CCOC(=O)c1nnsc1N/N=C\c1ccc([N+](=O)[O-])cc1
TGI (M14 melanoma): > 100 µM
TGI (NCI-H23 lung): > 100 µM
TGI (HCT-116 colon): > 100 µM
TGI (MDA-MB-435): > 100 µM
TGI (MOLT-4 leukemia): > 100 µM
TGI (ACHN renal): > 100 µM
TGI (PC-3 prostate): > 100 µM
TGI (OVCAR-8 ovarian): > 100 µM

COC(=O)C1Cc2cc3c(cc2C1=O)CCCC3 (configuration not stated)
TGI (M14 melanoma): > 100 µM
TGI (NCI-H23 lung): > 100 µM
TGI (HCT-116 colon): > 100 µM
TGI (MDA-MB-435): > 100 µM
TGI (MOLT-4 leukemia): > 100 µM
TGI (ACHN renal): > 100 µM
TGI (PC-3 prostate): > 100 µM
TGI (OVCAR-8 ovarian): > 100 µM
